# Measured values from paper PMC2615640 (Chemical research in toxicology, 2008).
# “Also recorded” adds a separate entry of the source. Marks after values point to notes of the source that are not given here.
# Legend:
# [1] = dry state, 24 h at room temperature, from 98.6% freshly isolated; cited from earlier work
# [2] = system: antioxidant response element (ARE); test: ARE-luciferase activity assay in HepG2-ARE-C8 cells; format: cell-based; conditions: 24 h treatment
# DPPH assay = format: biochemical; conditions: for DPPH % FRS ± SD: pure compounds at screening concentration of 100 μM
# [3] = LC-MS-MS analysis of GSH conjugates; conditions: 1 mM GSH, pH 8.0, 1 h, room temperature
# [4] = system: NAD(P)H:quinone oxidoreductase 1 (NQO1); test: In vitro NQO1 induction assay in Hepa-1c1c7 cells; conditions: Hepa1c1c7 cells; for NQO1 assay CD ± SD (concentration required for two-fold induction of NQO1): pure compounds, 48 h
# [5] = Crystal violet cytotoxicity assay; format: cell-based; conditions: mouse, Hepa1c1c7 murine hepatoma cells
# [6] = p.o. dose 500 mg/kg, rats; cited from earlier work
# [7] = system: NAD(P)H:quinone oxidoreductase 1 (NQO1); conditions: cited from earlier work
Compound,DPPH % FRS ± SD (DPPH assay),NQO1 inducing activity (in words) [4],NQO1 assay CD ± SD (concentration required for two-fold induction of NQO1) [4],other results
"CCC/C=C1\OC(=O)C2=C1CCC=C2 [Compound 1, Z-ligustilide]",< 50%,respectable NQO1 inducing activities,–,purity (GC-MS) after degradation [1]: 58.1%; ARE-luciferase reporter activity [2]: increased ARE-luciferase reporter activity in a dose-dependent manner; also recorded: induced ARE reporter luciferase activity in a dose-dependent manner; covalent modification of GSH / GSH conjugate formation [3]: covalently modified GSH; also recorded: formed GSH conjugates; IC50 at 48 h [5]: 71.2 ± 4.1 µM; GSH conjugate in plasma [6]: a GSH conjugate with monooxygenated ligustilide (mass 206) could be detected in the plasma
"CCC/C=C1\OC(=O)c2ccccc21 [Compound 2, Z-butylidenephthalide]",< 50%,did not induce NQO1 activity,> 20 µM,IC50 at 48 h [5]: > 20 µM
"CCC/C=C1\OC(=O)C2=C1CC[C@@H](O)[C@@H]2O [Compound 3, senkyunolide I]",< 50%,weak NQO1 inducing properties,17.9 ± 0.6 µM,–
"CCC/C=C1\OC(=O)C2=CC3CCC21[C@]1(OC(=O)c2ccccc21)[C@@H]3CCC (stereo partly shown) [Compound 4, ansaspirolide]",< 50%,potent inducing properties,0.9 ± 0.1 µM,CI (Chemopreventive Index: IC50/CD) [4]: 3
"CCC/C=C1\OC(=O)C23C=CCCC12C1(OC(=O)c2ccccc21)C3CCC (stereo not shown) [Compound 5, sinaspirolide]",< 50%,did not show any NQO1 inducing activity,> 20 µM,–
"COc1cc(/C=C/C(=O)OCC(O)C(OC)c2ccc(O)c(OC)c2)ccc1O (stereo not shown) [Compound 6, angeliferulate]",–,respectable NQO1 inducing activities; also recorded: high NQO1 inducing properties,7.5 ± 0.2 µM,–
"COc1cc(/C=C/C(=O)OCCc2ccc(O)cc2)ccc1O [Compound 7, p-hydroxyphenethyl trans-ferulate]",65 ± 1%,respectable NQO1 inducing activities; also recorded: high NQO1 inducing properties,2.4 ± 0.3 ^f μM,radical scavenging activity (in words) (DPPH assay; DPPH): moderate radical scavenging activity
C[S+]([O-])CCCCN=C=S (stereo not shown) [sulforaphane],–,–,–,CI (chemopreventive index) [7]: 26
